Source: US11214567B2, “Small molecule inhibitors of MYC and uses thereof” (The Regents of the University of Michigan, priority 2017, dated 2022)
Entries after “also recorded” stand apart in the source; their conditions may differ.

What was measured:
OVCAR8 = test: MTT assay (cytotoxicity), OVCAR8; format: cell-based; settings: Homo sapiens, OVCAR-8, 72 h, drug concentration causing a 50% decrease in cell population
Method: (§1) The evaluation of cytotoxicity was based on the reduction of MTT dye by viable cells to give purple formazan products, which can be measured spectrophotometrically at 540 nm. One hundred eighty microliters of cancer cells were seeded into 96-well plates at 3,500-4,000 cells/well and incubated at 37° C. overnight before the indicated treatments. After 72 h, 20 μl of MTT solution (3 mg/ml) was added and incubated again for 3 h. After removal of media and solubilization of formazan crystals in 150 μL of DMSO, the absorbance was measured at 570 nm. Percentage of cell growth inhibition was expressed as 1-[(A−B)/(C−B)]×100% (A, B and C were the absorbance values from experimental, blank and control cells, respectively).
(§2) KJA derivatives were tested by the MTT assay against five human cancer cell lines including ovarian cancer cell lines (OVCAR-8, NCI/ADR-RES and SKOV3) and pancreatic cancer cell lines (MIA PaCa-2 and Pac-1). […] It is important to note that the NCI/ADR-RES cell line shares a large number of karyotypic abnormalities with OVCAR-8 but expresses high levels of MDR1 (multidrug resistance protein 1)/P-glycoprotein (see, e.g., Xu, S.; et al., Proceedings of the National Academy of Sciences 2012, 109, 16348-16353), resulting in resistance to multiple anticancer drugs in clinical use, including paclitaxel and doxorubicin.

[1] = test system: five human cancer cell lines (OVCAR-8, NCI/ADR-RES, SKOV3, MIA PaCa-2, Pac-1); test: MTT assay, panel of five human cancer cell lines; format: cell-based; settings: span over the five cell lines, read-out: IC50 against five cancer cell lines
Method: as §1, §2

GLIPR1 = test: Western blotting of GLIPR1 protein levels; format: cell-based, human; settings: NCI/ADR-RES; Western blot
NCI/ADR-RES cell line = test: Bru-seq, changes in transcription; format: cell-based, human
Text: Furthermore, to better understand the potential mechanism of KJA03, we performed Bru-seq to examine the global changes in transcription in NCI/ADR-RES cells.

Cc1ccc(-c2noc(-c3ccccc3-n3c(-c4ccc(C)cc4)noc3=O)n2)cc1 [KJA03, 3-(P-tolyl)-4-(2-(3-(p-tolyl)-1,2,4-oxadiazol-5-yl)phenyl)-1,2,4-oxadiazol-5(4H)-one]
IC50 (OVCAR8): 140 ± 50 nM | IC50 [1]: 130 to 310 nM | GLIPR1 protein levels (GLIPR1): gradually upregulated; also recorded: up-regulated | expression of LAMC2, TAGLN, CSRP1, SLC4A4, LAMB3, and LPP genes (NCI/ADR-RES cell line): significantly increase | Fold-Change ACTC1 (NCI/ADR-RES cell line; NCI/ADR-RES, 0.4 uM, 4 hours): 2.238 fold | Fold-Change APOBEC3 (NCI/ADR-RES cell line; NCI/ADR-RES, 0.4 uM, 4 hours): 0.309 fold | Fold-Change ARMCX1 (NCI/ADR-RES cell line; NCI/ADR-RES, 0.4 uM, 4 hours): 0.417 fold | Fold-Change ATP5I (NCI/ADR-RES cell line; NCI/ADR-RES, 0.4 uM, 4 hours): 0.496 fold | Fold-Change AURKAIP1 (NCI/ADR-RES cell line; NCI/ADR-RES, 0.4 uM, 4 hours): 0.413 fold | Fold-Change BHLHE40 (NCI/ADR-RES cell line; NCI/ADR-RES, 0.4 uM, 4 hours): 2.683 fold | Fold-Change C19orf33 (NCI/ADR-RES cell line; NCI/ADR-RES, 0.4 uM, 4 hours): 0.378 fold | Fold-Change CNO (NCI/ADR-RES cell line; NCI/ADR-RES, 0.4 uM, 4 hours): 0.395 fold | Fold-Change CSRP1 (NCI/ADR-RES cell line; NCI/ADR-RES, 0.4 uM, 4 hours): 2.335 fold | Fold-Change EGR1 (NCI/ADR-RES cell line; NCI/ADR-RES, 0.4 uM, 4 hours): 0.198 fold | Fold-Change EXOSC4 (NCI/ADR-RES cell line; NCI/ADR-RES, 0.4 uM, 4 hours): 0.493 fold | Fold-Change FJX1 (NCI/ADR-RES cell line; NCI/ADR-RES, 0.4 uM, 4 hours): 0.469 fold | Fold-Change GALNT4 (NCI/ADR-RES cell line; NCI/ADR-RES, 0.4 uM, 4 hours): 0.356 fold | Fold-Change GLIPR1 (NCI/ADR-RES cell line; NCI/ADR-RES, 0.4 uM, 4 hours): 2.574 fold | Fold-Change HIST1H2A1 (NCI/ADR-RES cell line; NCI/ADR-RES, 0.4 uM, 4 hours): 0.483 fold | Fold-Change HIST1H2AB (NCI/ADR-RES cell line; NCI/ADR-RES, 0.4 uM, 4 hours): 0.362 fold | Fold-Change HIST1H2AE (NCI/ADR-RES cell line; NCI/ADR-RES, 0.4 uM, 4 hours): 0.471 fold | Fold-Change HIST1H2AG (NCI/ADR-RES cell line; NCI/ADR-RES, 0.4 uM, 4 hours): 0.45 fold | Fold-Change HIST1H2BL (NCI/ADR-RES cell line; NCI/ADR-RES, 0.4 uM, 4 hours): 0.441 fold | Fold-Change HIST1H2BM (NCI/ADR-RES cell line; NCI/ADR-RES, 0.4 uM, 4 hours): 0.193 fold | Fold-Change HIST1H2BN (NCI/ADR-RES cell line; NCI/ADR-RES, 0.4 uM, 4 hours): 0.378 fold | Fold-Change HIST1H3B (NCI/ADR-RES cell line; NCI/ADR-RES, 0.4 uM, 4 hours): 0.432 fold | Fold-Change HIST1H3F (NCI/ADR-RES cell line; NCI/ADR-RES, 0.4 uM, 4 hours): 0.322 fold | Fold-Change HIST1H3G (NCI/ADR-RES cell line; NCI/ADR-RES, 0.4 uM, 4 hours): 0.496 fold | Fold-Change HIST1H3H (NCI/ADR-RES cell line; NCI/ADR-RES, 0.4 uM, 4 hours): 0.136 fold | Fold-Change HIST1H4C (NCI/ADR-RES cell line; NCI/ADR-RES, 0.4 uM, 4 hours): 0.338 fold | Fold-Change HIST1H4H (NCI/ADR-RES cell line; NCI/ADR-RES, 0.4 uM, 4 hours): 0.324 fold | Fold-Change HIST1H4L (NCI/ADR-RES cell line; NCI/ADR-RES, 0.4 uM, 4 hours): 0.416 fold | Fold-Change HIST2H2AC (NCI/ADR-RES cell line; NCI/ADR-RES, 0.4 uM, 4 hours): 0.29 fold | Fold-Change HIST3H2BB (NCI/ADR-RES cell line; NCI/ADR-RES, 0.4 uM, 4 hours): 0.446 fold | Fold-Change HIST4H4 (NCI/ADR-RES cell line; NCI/ADR-RES, 0.4 uM, 4 hours): 0.483 fold | Fold-Change HOXA1 (NCI/ADR-RES cell line; NCI/ADR-RES, 0.4 uM, 4 hours): 0.491 fold | Fold-Change HOXC (NCI/ADR-RES cell line; NCI/ADR-RES, 0.4 uM, 4 hours): 0.477 fold | Fold-Change HOXC4 (NCI/ADR-RES cell line; NCI/ADR-RES, 0.4 uM, 4 hours): 0.4 fold | Fold-Change HSD17B10 (NCI/ADR-RES cell line; NCI/ADR-RES, 0.4 uM, 4 hours): 0.415 fold | Fold-Change ILE (NCI/ADR-RES cell line; NCI/ADR-RES, 0.4 uM, 4 hours): 2.485 fold | Fold-Change INGX (NCI/ADR-RES cell line; NCI/ADR-RES, 0.4 uM, 4 hours): 3.089 fold | Fold-Change LAMB3 (NCI/ADR-RES cell line; NCI/ADR-RES, 0.4 uM, 4 hours): 2.089 fold | Fold-Change LAMC2 (NCI/ADR-RES cell line; NCI/ADR-RES, 0.4 uM, 4 hours): 3.217 fold | Fold-Change LINC00312 (NCI/ADR-RES cell line; NCI/ADR-RES, 0.4 uM, 4 hours): 2.165 fold | Fold-Change LINC00493 (NCI/ADR-RES cell line; NCI/ADR-RES, 0.4 uM, 4 hours): 0.452 fold | Fold-Change LOC100630918 (NCI/ADR-RES cell line; NCI/ADR-RES, 0.4 uM, 4 hours): 0.494 fold | Fold-Change LPP (NCI/ADR-RES cell line; NCI/ADR-RES, 0.4 uM, 4 hours): 2.032 fold | Fold-Change LSMD1 (NCI/ADR-RES cell line; NCI/ADR-RES, 0.4 uM, 4 hours): 2.261 fold | Fold-Change MRPL34 (NCI/ADR-RES cell line; NCI/ADR-RES, 0.4 uM, 4 hours): 0.416 fold | Fold-Change MRPL41 (NCI/ADR-RES cell line; NCI/ADR-RES, 0.4 uM, 4 hours): 0.496 fold | Fold-Change MRPS26 (NCI/ADR-RES cell line; NCI/ADR-RES, 0.4 uM, 4 hours): 0.432 fold | Fold-Change MYADM (NCI/ADR-RES cell line; NCI/ADR-RES, 0.4 uM, 4 hours): 2.114 fold | Fold-Change PA2G4P4 (NCI/ADR-RES cell line; NCI/ADR-RES, 0.4 uM, 4 hours): 0.463 fold | Fold-Change RPL23AP32 (NCI/ADR-RES cell line; NCI/ADR-RES, 0.4 uM, 4 hours): 2.141 fold | Fold-Change RPS19BP1 (NCI/ADR-RES cell line; NCI/ADR-RES, 0.4 uM, 4 hours): 0.49 fold | Fold-Change SCARNA2 (NCI/ADR-RES cell line; NCI/ADR-RES, 0.4 uM, 4 hours): 0.401 fold | Fold-Change SCARNA10 (NCI/ADR-RES cell line; NCI/ADR-RES, 0.4 uM, 4 hours): 0.487 fold | Fold-Change SCARNA17 (NCI/ADR-RES cell line; NCI/ADR-RES, 0.4 uM, 4 hours): 0.496 fold | Fold-Change SDPR (NCI/ADR-RES cell line; NCI/ADR-RES, 0.4 uM, 4 hours): 0.497 fold | Fold-Change SFTA1P (NCI/ADR-RES cell line; NCI/ADR-RES, 0.4 uM, 4 hours): 0.387 fold | Fold-Change SLC4A4 (NCI/ADR-RES cell line; NCI/ADR-RES, 0.4 uM, 4 hours): 2.18 fold | Fold-Change SNRNP25 (NCI/ADR-RES cell line; NCI/ADR-RES, 0.4 uM, 4 hours): 0.463 fold | Fold-Change SSSCA1 (NCI/ADR-RES cell line; NCI/ADR-RES, 0.4 uM, 4 hours): 0.386 fold | Fold-Change TAGLN (NCI/ADR-RES cell line; NCI/ADR-RES, 0.4 uM, 4 hours): 2.648 fold | Fold-Change TCEAL1 (NCI/ADR-RES cell line; NCI/ADR-RES, 0.4 uM, 4 hours): 0.455 fold | Fold-Change TMEM133 (NCI/ADR-RES cell line; NCI/ADR-RES, 0.4 uM, 4 hours): 2.846 fold | Fold-Change TNFAIP3 (NCI/ADR-RES cell line; NCI/ADR-RES, 0.4 uM, 4 hours): 2.192 fold | Fold-Change TPBG (NCI/ADR-RES cell line; NCI/ADR-RES, 0.4 uM, 4 hours): 0.374 fold | Fold-Change TUBB2B (NCI/ADR-RES cell line; NCI/ADR-RES, 0.4 uM, 4 hours): 0.461 fold | Fold-Change TWIST1 (NCI/ADR-RES cell line; NCI/ADR-RES, 0.4 uM, 4 hours): 0.319 fold | Fold-Change TXNIP (NCI/ADR-RES cell line; NCI/ADR-RES, 0.4 uM, 4 hours): 0.281 fold
